From US8901133B2, “Heterocyclic compounds and uses thereof” (Infinity Pharmaceuticals, Inc., priority 2010, dated 2014)
pIC50: −log10 of the molar value.

How the values were obtained:
Balb/c splenic B cells = test: B cell activation and proliferation assay (Alamar Blue); format: cell-based; settings: Mus musculus, read-out: B cell prolif. IC50
Protocol: The ability of one or more subject compounds to inhibit B cell activation and proliferation is determined according to standard procedures known in the art. For example, an in vitro cellular proliferation assay is established that measures the metabolic activity of live cells. The assay is performed in a 96 well microtiter plate using Alamar Blue reduction. Balb/c splenic B cells are purified over a Ficoll-Paque™ PLUS gradient followed by magnetic cell separation using a MACS B cell Isolation Kit (Miletenyi). Cells are plated in 90 ul at 50,000 cells/well in B Cell Media (RPMI+10% FBS+Penn/Strep+50 uM bME+5 mM HEPES). A compound disclosed herein is diluted in B Cell Media and added in a 10 μl volume. Plates are incubated for 30 min at 37 C and 5% CO2 (0.2% DMSO final concentration). A 50 μl B cell stimulation cocktail is then added containing either 10 ug/ml LPS or 5 ug/ml F(ab′)2 Donkey anti-mouse IgM plus 2 ng/ml recombinant mouse IL4 in B Cell Media. Plates are incubated for 72 hours at 37° C. and 5% CO2. A volume of 15 μl of Alamar Blue reagent is added to each well and plates are incubated for 5 hours at 37 C and 5% CO2. Alamar Blue fluoresce is read at 560Ex/590Em, and IC50 or EC50 values are calculated using GraphPad Prism 5.

PI3Kδ = biological target: T1, PI3Kδ (Homo sapiens, UniProt O00329); test: PI3 Kinase HTRF assay, PI3Kδ; format: biochemical; settings: 10 μM PIP2, 10 μM ATP; read-out: PI3K δ IC50
T1 construct: purchased Millipore Corporation 14-604-K
In short: (§1)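 Recombinant human PI3K isoforms converting 10 μM PIP2 with 10 μM ATP; compound preincubated 15 min, reaction 1 h at room temperature, 2% DMSO. PIP3 detected by competitive HTRF (GRP1 PH domain displacement); IC50 by nonlinear regression of 12-point curves, 20 μM to 0.1 nM.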

PI3Kα = biological target: T2, PI3Kα (Homo sapiens, UniProt P42336); test: PI3 Kinase HTRF assay, PI3Kα; format: biochemical; settings: 10 μM PIP2, 10 μM ATP; read-out: PI3K α IC50
T2 construct: purchased Millipore Corporation 14-602-K
In short: as §1

PI3Kβ = biological target: T3, PI3Kβ (Homo sapiens, UniProt P42338); test: PI3 Kinase HTRF assay, PI3Kβ; format: biochemical; settings: 10 μM PIP2, 10 μM ATP; read-out: PI3K β IC50
T3 construct: purchased Millipore Corporation 14-603-K
In short: as §1

PI3Kγ = biological target: T4, PI3Kγ (Homo sapiens, UniProt P48736); test: PI3 Kinase HTRF assay, PI3Kγ; format: biochemical; settings: 10 μM PIP2, 10 μM ATP; read-out: PI3K γ IC50
T4 construct: purchased Millipore Corporation 14-558-K
In short: as §1

T4 sequence (P48736 whole entry): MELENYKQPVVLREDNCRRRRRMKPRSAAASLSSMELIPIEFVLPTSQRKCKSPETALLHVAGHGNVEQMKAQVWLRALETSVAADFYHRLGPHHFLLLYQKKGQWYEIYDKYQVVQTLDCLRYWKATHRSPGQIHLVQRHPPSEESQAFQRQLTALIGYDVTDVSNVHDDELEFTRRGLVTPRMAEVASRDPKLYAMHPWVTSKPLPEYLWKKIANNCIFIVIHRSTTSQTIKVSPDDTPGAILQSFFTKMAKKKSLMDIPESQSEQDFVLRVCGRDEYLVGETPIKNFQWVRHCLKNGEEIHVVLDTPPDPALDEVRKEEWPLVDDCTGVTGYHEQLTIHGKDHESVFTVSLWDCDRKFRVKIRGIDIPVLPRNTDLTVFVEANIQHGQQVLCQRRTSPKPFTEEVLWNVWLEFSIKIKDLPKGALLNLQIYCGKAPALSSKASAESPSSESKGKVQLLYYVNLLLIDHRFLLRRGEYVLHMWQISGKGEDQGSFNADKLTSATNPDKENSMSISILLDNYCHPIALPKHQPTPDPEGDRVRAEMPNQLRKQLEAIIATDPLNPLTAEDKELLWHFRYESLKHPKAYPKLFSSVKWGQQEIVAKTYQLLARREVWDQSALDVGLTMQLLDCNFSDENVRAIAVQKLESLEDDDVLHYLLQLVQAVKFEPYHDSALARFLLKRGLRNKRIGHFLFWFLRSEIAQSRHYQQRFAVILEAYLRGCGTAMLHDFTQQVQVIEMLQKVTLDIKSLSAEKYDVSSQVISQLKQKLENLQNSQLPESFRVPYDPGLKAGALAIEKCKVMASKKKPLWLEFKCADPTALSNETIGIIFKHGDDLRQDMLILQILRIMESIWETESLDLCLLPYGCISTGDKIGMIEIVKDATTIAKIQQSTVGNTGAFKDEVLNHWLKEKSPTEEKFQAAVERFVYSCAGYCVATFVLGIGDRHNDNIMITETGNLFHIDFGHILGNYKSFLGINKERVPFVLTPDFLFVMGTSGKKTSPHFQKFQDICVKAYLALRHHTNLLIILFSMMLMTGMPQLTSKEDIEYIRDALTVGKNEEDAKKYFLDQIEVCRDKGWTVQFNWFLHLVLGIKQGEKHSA
T2 sequence (P42336 whole entry): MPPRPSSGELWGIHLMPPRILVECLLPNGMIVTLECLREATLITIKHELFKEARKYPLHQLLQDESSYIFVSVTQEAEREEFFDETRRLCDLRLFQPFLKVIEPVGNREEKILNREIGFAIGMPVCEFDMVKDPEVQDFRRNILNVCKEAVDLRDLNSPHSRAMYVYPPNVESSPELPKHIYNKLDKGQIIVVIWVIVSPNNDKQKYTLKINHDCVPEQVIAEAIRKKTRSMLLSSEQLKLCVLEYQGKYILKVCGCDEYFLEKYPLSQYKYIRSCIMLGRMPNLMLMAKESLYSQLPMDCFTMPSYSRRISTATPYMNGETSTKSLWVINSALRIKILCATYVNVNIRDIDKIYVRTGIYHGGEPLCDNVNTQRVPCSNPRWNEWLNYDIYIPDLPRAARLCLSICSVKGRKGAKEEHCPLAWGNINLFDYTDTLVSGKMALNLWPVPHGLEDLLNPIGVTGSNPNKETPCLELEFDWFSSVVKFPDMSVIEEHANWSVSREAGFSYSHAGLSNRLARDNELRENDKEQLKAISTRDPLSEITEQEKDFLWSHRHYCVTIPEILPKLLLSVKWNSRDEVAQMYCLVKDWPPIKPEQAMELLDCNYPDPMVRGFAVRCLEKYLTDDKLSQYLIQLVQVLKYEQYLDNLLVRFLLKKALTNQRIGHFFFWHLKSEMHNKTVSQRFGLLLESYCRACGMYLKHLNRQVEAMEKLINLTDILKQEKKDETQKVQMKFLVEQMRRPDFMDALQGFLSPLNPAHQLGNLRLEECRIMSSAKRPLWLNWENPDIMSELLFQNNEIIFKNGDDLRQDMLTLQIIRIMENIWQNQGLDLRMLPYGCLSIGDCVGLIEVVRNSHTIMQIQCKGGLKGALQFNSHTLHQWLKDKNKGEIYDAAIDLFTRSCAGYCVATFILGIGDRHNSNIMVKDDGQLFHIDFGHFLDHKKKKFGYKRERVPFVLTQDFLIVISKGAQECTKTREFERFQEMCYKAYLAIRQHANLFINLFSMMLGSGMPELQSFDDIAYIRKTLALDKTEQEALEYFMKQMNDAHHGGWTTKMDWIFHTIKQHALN
T2 sequence (P27986 whole entry partner): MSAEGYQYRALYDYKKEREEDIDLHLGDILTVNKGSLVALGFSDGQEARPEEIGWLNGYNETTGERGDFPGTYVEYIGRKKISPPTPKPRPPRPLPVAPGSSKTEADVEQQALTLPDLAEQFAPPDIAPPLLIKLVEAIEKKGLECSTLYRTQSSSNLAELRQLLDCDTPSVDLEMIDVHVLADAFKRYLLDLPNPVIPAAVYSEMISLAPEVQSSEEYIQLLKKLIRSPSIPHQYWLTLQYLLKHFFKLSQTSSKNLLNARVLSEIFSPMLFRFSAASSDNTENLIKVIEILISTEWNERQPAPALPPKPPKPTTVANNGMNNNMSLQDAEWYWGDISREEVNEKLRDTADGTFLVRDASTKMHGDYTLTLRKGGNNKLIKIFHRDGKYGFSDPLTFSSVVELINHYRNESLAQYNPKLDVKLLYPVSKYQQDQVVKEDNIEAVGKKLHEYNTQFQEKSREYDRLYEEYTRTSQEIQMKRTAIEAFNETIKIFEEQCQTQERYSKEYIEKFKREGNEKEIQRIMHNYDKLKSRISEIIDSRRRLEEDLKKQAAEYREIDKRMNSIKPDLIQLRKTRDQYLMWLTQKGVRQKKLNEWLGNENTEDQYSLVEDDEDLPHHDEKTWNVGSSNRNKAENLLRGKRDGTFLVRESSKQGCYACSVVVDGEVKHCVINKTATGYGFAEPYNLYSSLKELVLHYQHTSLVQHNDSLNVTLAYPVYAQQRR
T1 sequence (O00329 whole entry): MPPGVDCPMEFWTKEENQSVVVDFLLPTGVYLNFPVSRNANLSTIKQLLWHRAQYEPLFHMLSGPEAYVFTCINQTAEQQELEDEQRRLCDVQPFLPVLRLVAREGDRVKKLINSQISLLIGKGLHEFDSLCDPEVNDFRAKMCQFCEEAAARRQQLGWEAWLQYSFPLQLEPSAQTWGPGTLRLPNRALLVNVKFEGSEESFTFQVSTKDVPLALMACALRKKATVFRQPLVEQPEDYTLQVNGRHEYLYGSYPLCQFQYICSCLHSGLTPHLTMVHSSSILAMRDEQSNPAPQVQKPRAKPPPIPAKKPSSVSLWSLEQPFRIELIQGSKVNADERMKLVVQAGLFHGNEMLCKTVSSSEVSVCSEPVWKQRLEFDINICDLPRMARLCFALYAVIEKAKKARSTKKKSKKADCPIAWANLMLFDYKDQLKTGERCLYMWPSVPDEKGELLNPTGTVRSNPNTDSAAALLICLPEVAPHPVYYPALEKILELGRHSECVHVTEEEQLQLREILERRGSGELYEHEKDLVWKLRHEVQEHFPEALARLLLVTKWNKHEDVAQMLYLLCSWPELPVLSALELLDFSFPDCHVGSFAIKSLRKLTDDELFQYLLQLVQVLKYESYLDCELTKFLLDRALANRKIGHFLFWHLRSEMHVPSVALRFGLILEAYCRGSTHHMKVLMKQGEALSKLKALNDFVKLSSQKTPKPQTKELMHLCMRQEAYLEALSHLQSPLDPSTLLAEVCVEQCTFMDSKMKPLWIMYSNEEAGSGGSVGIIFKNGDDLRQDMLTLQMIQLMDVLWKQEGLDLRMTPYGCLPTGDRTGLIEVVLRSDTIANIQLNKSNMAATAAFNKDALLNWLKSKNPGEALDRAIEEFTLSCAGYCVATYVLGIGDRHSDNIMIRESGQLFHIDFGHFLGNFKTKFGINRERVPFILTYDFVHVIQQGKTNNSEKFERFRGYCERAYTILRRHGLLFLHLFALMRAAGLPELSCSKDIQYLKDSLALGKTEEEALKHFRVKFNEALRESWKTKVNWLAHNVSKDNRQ
T1 sequence (P27986 whole entry partner): as the sequence (P27986 whole entry partner) above
T3 sequence (P42338 whole entry): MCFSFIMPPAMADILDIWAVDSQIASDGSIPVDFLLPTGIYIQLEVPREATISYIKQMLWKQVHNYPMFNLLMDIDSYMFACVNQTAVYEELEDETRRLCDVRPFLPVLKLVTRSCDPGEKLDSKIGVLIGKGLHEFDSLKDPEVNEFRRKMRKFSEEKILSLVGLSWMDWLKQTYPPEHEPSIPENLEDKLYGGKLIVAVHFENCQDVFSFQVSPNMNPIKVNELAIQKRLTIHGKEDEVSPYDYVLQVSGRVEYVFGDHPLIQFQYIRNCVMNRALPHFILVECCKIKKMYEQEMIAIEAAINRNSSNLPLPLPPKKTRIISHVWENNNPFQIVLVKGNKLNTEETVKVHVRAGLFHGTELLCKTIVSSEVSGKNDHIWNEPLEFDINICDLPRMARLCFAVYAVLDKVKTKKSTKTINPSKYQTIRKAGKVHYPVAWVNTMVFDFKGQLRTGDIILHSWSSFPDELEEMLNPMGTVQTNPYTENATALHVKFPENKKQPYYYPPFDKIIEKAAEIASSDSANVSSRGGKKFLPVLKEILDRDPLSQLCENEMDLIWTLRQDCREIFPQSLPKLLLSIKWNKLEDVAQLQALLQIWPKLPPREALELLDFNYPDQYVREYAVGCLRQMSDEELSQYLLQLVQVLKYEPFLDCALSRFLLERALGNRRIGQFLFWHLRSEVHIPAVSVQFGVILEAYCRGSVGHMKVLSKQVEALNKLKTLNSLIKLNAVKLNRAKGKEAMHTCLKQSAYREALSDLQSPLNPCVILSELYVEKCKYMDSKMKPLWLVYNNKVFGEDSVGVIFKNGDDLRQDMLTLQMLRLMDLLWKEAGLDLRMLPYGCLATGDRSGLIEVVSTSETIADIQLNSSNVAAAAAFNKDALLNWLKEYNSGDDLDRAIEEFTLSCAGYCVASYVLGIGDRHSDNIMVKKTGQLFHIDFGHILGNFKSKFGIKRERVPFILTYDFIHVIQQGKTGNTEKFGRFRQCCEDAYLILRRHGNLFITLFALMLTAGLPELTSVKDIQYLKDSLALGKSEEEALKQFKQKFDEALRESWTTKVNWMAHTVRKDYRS
T3 sequence (P27986 whole entry partner): as the sequence (P27986 whole entry partner) above

Compound | pIC50 (Balb/c splenic B cells) | pIC50 (PI3Kδ) | pIC50 (PI3Kα) | pIC50 (PI3Kβ) | pIC50 (PI3Kγ)
C[C@H](Nc1ncnc2cccnc12)c1cc2cccc(Cl)c2c(CCN2CCOCC2)n1 [Compound 75] | > 7.00 | > 7.00 | > 6.00 | > 6.00 | > 6.00
C[C@H](Nc1ccnn2ccnc12)c1cc2ccccc2c(CCN2CCOCC2)n1 [Compound 77, (S)—N-(1-(1-(2-morpholinoethyl)isoquinolin-3-yl)ethyl)imidazo[1,2-b]pyridazin-8-amine] | > 7.00 | > 7.00 | < 5.00 | < 5.00 | < 5.00
C[C@H](Nc1ncnc2[nH]cnc12)c1nc(CCN2CCOCC2)c2c(Cl)cccc2c1F [Compound 85, (S)—N-(1-(8-chloro-4-fluoro-1-(2-morpholinoethyl)isoquinolin-3-yl)ethyl)-9H-purin-6-amine] | > 6.00 | > 6.00 | < 5.00 | < 5.00 | < 5.00
CC(C)N1CCN(c2nc([C@H](C)Nc3ncnc4[nH]cnc34)cc3cccc(Cl)c23)CC1 [Compound 90] | > 7.00 | > 7.00 | > 5.00 | > 5.00 | > 5.00
CCN1CCN(c2nc([C@H](C)Nc3ncnc4[nH]cnc34)cc3cccc(Cl)c23)CC1 [Compound 91] | > 7.00 | > 7.00 | > 5.00 | > 5.00 | > 5.00
Cc1cccc2cc([C@H](C)Nc3ncnc4[nH]cnc34)nc(OCC3CCN(C)CC3)c12 [Compound 92] | > 7.00 | > 7.00 | > 5.00 | > 5.00 | > 5.00
C[C@H](Nc1ncnc2[nH]cnc12)c1cc2cccc(Cl)c2c(SCCN2CCOCC2)n1 [Compound 93, (S)—N-(1-(8-chloro-1-(2-morpholinoethylthio)isoquinolin-3-yl)ethyl)-9H-purin-6-amine] | > 7.00 | > 7.00 | > 5.00 | > 6.00 | > 6.00
C[C@H](Nc1ncnc2scnc12)c1cc2cccc(Cl)c2c(N2CCN(C)CC2)n1 [Compound 98] | > 7.00 | > 7.00 | > 5.00 | > 6.00 | > 5.00
CC(C)N1CCC(Oc2nc([C@H](C)Nc3ccnc4ccnn34)cc3cccc(Cl)c23)CC1 [Compound 107] | > 7.00 | > 7.00 | > 5.00 | > 5.00 | > 5.00
CC(C)N1CCC(Oc2nc([C@H](C)Nc3ncnc4cccnc34)cc3cccc(Cl)c23)CC1 [Compound 108] | > 6.00 | > 7.00 | > 5.00 | < 5.00 | > 7.00
C[C@H](Nc1ncnc2scnc12)c1cc2cccc(Cl)c2c(C(=O)N2CCOCC2)n1 [Compound 116] | > 7.00 | > 7.00 | > 5.00 | > 6.00 | > 6.00
C[C@H](Nc1ncnc2ccccc12)c1cc2cccc(Cl)c2c(C(=O)N2CCOCC2)n1 [Compound 119] | > 6.00 | > 7.00 | > 5.00 | < 5.00 | > 6.00
C[C@H](Nc1ccnc2ccnn12)c1cc2cccc(Cl)c2c(C(=O)N2CCOCC2)n1 [Compound 120] | > 7.00 | > 7.00 | > 5.00 | > 5.00 | > 6.00
C[C@H](Nc1ncnc2scnc12)c1cc2cccc(Cl)c2c(OCCN2CCCC2)n1 [Compound 121] | > 7.00 | > 7.00 | > 6.00 | > 6.00 | > 6.00
CC(C)N1CCC(Oc2nc([C@H](C)Nc3ncnc4scnc34)cc3cccc(Cl)c23)CC1 [Compound 122] | > 6.00 | > 7.00 | > 5.00 | > 5.00 | > 5.00
C[C@H](Nc1ncnc2cccnc12)c1cc2cccc(Cl)c2c(C(=O)N2C3CCC2COC3)n1 [Compound 123] | > 7.00 | > 7.00 | > 5.00 | > 5.00 | > 6.00
C[C@H](Nc1ncnc2scnc12)c1cc2cccc(Cl)c2c(C(=O)N2C3CCC2COC3)n1 [Compound 124] | > 7.00 | > 7.00 | > 5.00 | > 6.00 | > 6.00

Compound | pIC50 (Balb/c splenic B cells) | pIC50 (PI3Kδ) | pIC50 (PI3Kα) | pIC50 (PI3Kβ) | pIC50 (PI3Kγ)
C[C@H](Nc1ccnc2ccnn12)c1cc2cccc(Cl)c2c(C(=O)N2C3CCC2COC3)n1 [Compound 125] | > 7.00 | > 7.00 | < 5.00 | > 5.00 | > 5.00
C[C@H](Nc1ncnc2[nH]cnc12)c1cc2cccc(Cl)c2c([S+]([O-])CCN2CCOCC2)n1 (some centres unmarked) [Compound 129] | > 6.00 | > 7.00 | > 5.00 | > 6.00 | > 6.00
C[C@H](Nc1ncnc2[nH]cnc12)c1cc2cccc(Cl)c2c(SCCN2CCCC2)n1 [Compound 135] | > 6.00 | > 7.00 | < 5.00 | > 5.00 | < 5.00
C[C@H](Nc1ncnc2[nH]cnc12)c1cc2cccc(Cl)c2c([S+]([O-])CCN2CCCC2)n1 (some centres unmarked) [Compound 136] | > 7.00 | > 7.00 | > 5.00 | > 5.00 | > 5.00
C[C@H](Nc1ncnc2scnc12)c1cc2cccc(Cl)c2c(C(=O)NC2CCOCC2)n1 [Compound 144] | > 7.00 | > 7.00 | < 5.00 | < 5.00 | > 5.00
Cc1cccc2cc([C@H](C)Nc3ncnc4[nH]cnc34)nc(OCCN3CCCC3)c12 [Compound 145] | > 7.00 | > 7.00 | < 5.00 | > 5.00 | < 5.00
Cc1cccc2cc([C@H](C)Nc3ncnc4[nH]cnc34)nc(CCN3CCOCC3)c12 [Compound 146] | > 7.00 | > 7.00 | < 5.00 | > 5.00 | > 5.00
Cc1cccc2cc([C@H](C)Nc3ncnc4[nH]cnc34)nc(C(=O)N3C4CCC3COC4)c12 [Compound 149] | > 7.00 | > 7.00 | < 5.00 | < 5.00 | > 5.00
C[C@H](Nc1ncnc2[nH]cnc12)c1cc2cccc(-c3cnn(C)c3)c2c(OCCN2CCCC2)n1 [Compound 151] | > 7.00 | > 7.00 | < 5.00 | > 5.00 | > 5.00
CC(C)N1CCC(Oc2nc([C@H](C)Nc3ncnc4[nH]cnc34)cc3cccc(-c4cnn(C)c4)c23)CC1 [Compound 158] | > 6.00 | > 7.00 | < 5.00 | > 5.00 | < 5.00
CC(C)N1CCC(Oc2nc([C@H](C)Nc3ncnc4cccnc34)cc3cccc(-c4cnn(C)c4)c23)CC1 [Compound 160] | > 7.00 | > 7.00 | > 5.00 | < 5.00 | > 5.00
Cc1cccc2cc([C@H](C)Nc3ncnc4cccnc34)nc(OCCN3CCCC3)c12 [Compound 162] | > 7.00 | > 7.00 | > 6.00 | > 5.00 | > 6.00
Cc1cccc2cc([C@H](C)Nc3ncnc4cccnc34)nc(OC3CCN(C(C)C)CC3)c12 [Compound 163] | > 7.00 | > 7.00 | > 5.00 | < 5.00 | > 5.00
Cc1cccc2cc([C@H](C)Nc3ncnc4cccnc34)nc(N3CCN(C)CC3)c12 [Compound 164] | > 7.00 | > 7.00 | > 5.00 | > 5.00 | > 5.00
Cc1cccc2cc([C@H](C)Nc3ncnc4cccnc34)nc(CCN3CCOCC3)c12 [Compound 165] | > 7.00 | > 7.00 | > 5.00 | < 5.00 | > 5.00
Cc1cccc2cc([C@H](C)Nc3ncnc4cccnc34)nc(C(=O)N3CCOCC3)c12 [Compound 166] | > 7.00 | > 7.00 | > 5.00 | > 5.00 | > 6.00
Cc1cccc2cc([C@H](C)Nc3ncnc4cccnc34)nc(C(=O)N3C4CCC3COC4)c12 [Compound 167] | > 7.00 | > 7.00 | > 5.00 | > 5.00 | > 6.00
